Experimental data: paper PMC7753086 (Computational and Structural Biotechnology Journal, 2020)
Where “and” joins values, the source holds several entries; their conditions need not be identical. Equal values may be shown once. Entries after “also recorded” stand apart in the source; their conditions may differ. Read-outs that look alike come from different tables or passages of the source.

Legend:
[1] = after 5 days at 20 °C; cited from earlier work
mushroom tyrosinase [2] = molecular target: mushroom tyrosinase (Agaricus bisporus, UniProt C7FF04); assay: biochemical; assay type: biochemical; conditions: for Tyrosinase inhibition (%): 25 μM, L-tyrosine as substrate, NI: no inhibition, means ± SEMs, 25 µM; for inhibitory potency relative to kojic acid: from IC50 values
B16F10 melanoma cells [3] = assay: Cell viability assay: EZ-cytox assay; assay type: cell-based, murine; conditions: up to 20 µM, 24 h
B16F10 melanoma cells [4] = assay: Melanin content assay in α-MSH and IBMX co-stimulated B16F10 cells; assay type: cell-based, murine; conditions: for melanin contents: 5, 10, 20 μM, α-MSH and IBMX, 48 h
mushroom tyrosinase [5] = assay: Kinetic studies of tyrosinase inhibition; assay type: biochemical; conditions: for mode of tyrosinase inhibition: Lineweaver-Burk plots, L-tyrosine as substrate
[6] = system: cellular tyrosinase in B16F10 melanoma cells; assay type: cell-based, murine; conditions: for cellular tyrosinase activity: 5, 10, 20 μM, α-MSH 1 μM and IBMX 200 µM, 48 h

Chain of mushroom tyrosinase (Agaricus bisporus, UniProt C7FF04) (C7FF04 1-392): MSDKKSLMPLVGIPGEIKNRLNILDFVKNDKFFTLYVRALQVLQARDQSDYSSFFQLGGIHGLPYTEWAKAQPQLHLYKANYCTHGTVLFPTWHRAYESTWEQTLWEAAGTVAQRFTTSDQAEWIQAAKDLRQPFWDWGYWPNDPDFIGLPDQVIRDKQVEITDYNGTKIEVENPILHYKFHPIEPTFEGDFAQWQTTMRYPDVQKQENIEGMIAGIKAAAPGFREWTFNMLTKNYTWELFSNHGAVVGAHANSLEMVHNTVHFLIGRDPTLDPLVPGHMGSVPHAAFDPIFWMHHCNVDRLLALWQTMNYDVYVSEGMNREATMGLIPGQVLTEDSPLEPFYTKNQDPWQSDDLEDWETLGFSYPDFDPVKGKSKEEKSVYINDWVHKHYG

Compound	IC50 (mushroom tyrosinase [2])	Tyrosinase inhibition (%) (mushroom tyrosinase [2])	inhibitory potency relative to kojic acid (mushroom tyrosinase [2])	Ki (mushroom tyrosinase [5]; inhibitor conc. 5.0 μM)	Vmax (mushroom tyrosinase [5]; inhibitor conc. 5.0 μM)	Ki (mushroom tyrosinase [5]; inhibitor conc. 10.0 μM)	Vmax (mushroom tyrosinase [5]; inhibitor conc. 10.0 μM)	Vmax (mushroom tyrosinase [5]; regardless of concentration)	cytotoxic effect (cell viability) (B16F10 melanoma cells [3])	melanin contents (B16F10 melanoma cells [4])	mode of tyrosinase inhibition (mushroom tyrosinase [5])	cellular tyrosinase activity [6]	cellular tyrosinase inhibition compared with kojic acid at 20 μM ([6]; compound at 10 μM)	also measured
OC[C@H]1O[C@@H](Oc2ccc(O)cc2)[C@H](O)[C@@H](O)[C@@H]1O [Arbutin]														decomposition [1]: 10%
O=C1/C(=C/c2ccc(O)c(O)c2)OC(=S)N1c1ccccc1 [Compound 1b, (Z)-5-(3,4-Dihydroxybenzylidene)-3-phenyl-2-thioxooxazolidin-4-one]	53.38 ± 0.39 µM													
O=C1/C(=C/c2ccc(O)cc2O)OC(=S)N1c1ccccc1 [Compound 1c, (Z)-5-(2,4-Dihydroxybenzylidene)-3-phenyl-2-thioxooxazolidin-4-one]	4.7 ± 0.4 µM	78.05 ± 4.03%	5 fold and 4.9 fold	2.51 µM	0.04 mM/min	2.19 µM	0.04 mM/min	0.04 mM/min	did not have a significant cytotoxic effect	significantly and potently decreased melanin contents	competitively inhibited; also recorded: competitive inhibitors	significantly and concentration-dependently decreased cellular tyrosinase activity	more potent than kojic acid; also recorded: inhibited cellular tyrosinase more than kojic acid	inhibition of melanin production compared with kojic acid at 20 µM (B16F10 melanoma cells [4]; compound at 10 μM): inhibited melanin production more than kojic acid; Ki (mushroom tyrosinase [5]; inhibitor conc. 2.5 μM): 3.02 µM; Vmax (mushroom tyrosinase [5]; inhibitor conc. 2.5 μM): 0.04 mM/min

Now from value to compound, other results behind:

IC50 (mushroom tyrosinase [2])	Tyrosinase inhibition (%) (mushroom tyrosinase [2])	inhibitory potency relative to kojic acid (mushroom tyrosinase [2])	Ki (mushroom tyrosinase [5]; inhibitor conc. 5.0 μM)	Vmax (mushroom tyrosinase [5]; inhibitor conc. 5.0 μM)	Ki (mushroom tyrosinase [5]; inhibitor conc. 10.0 μM)	Vmax (mushroom tyrosinase [5]; inhibitor conc. 10.0 μM)	Vmax (mushroom tyrosinase [5]; regardless of concentration)	Compound	cytotoxic effect (cell viability) (B16F10 melanoma cells [3])	melanin contents (B16F10 melanoma cells [4])	mode of tyrosinase inhibition (mushroom tyrosinase [5])	cellular tyrosinase activity [6]	cellular tyrosinase inhibition compared with kojic acid at 20 μM ([6]; compound at 10 μM)	also measured
11.2 ± 0.54 µM	71.12 ± 0.71%	2 fold and 2.1 fold	5.85 µM	0.027 mM/min	4.51 µM	0.027 mM/min	0.027 mM/min	O=C1/C(=C/c2ccccc2O)OC(=S)N1c1ccccc1 [Compound 1j, (Z)-5-(2-Hydroxybenzylidene)-3-phenyl-2-thioxooxazolidin-4-one]	did not have a significant cytotoxic effect	significantly and potently decreased melanin contents	competitively inhibited; also recorded: competitive inhibitors	significantly and concentration-dependently decreased cellular tyrosinase activity	more potent than kojic acid	inhibition of melanin production compared with kojic acid at 20 µM (B16F10 melanoma cells [4]; compound at 5 μM): inhibited melanin production more than kojic acid; Ki (mushroom tyrosinase [5]; inhibitor conc. 20.0 μM): 3.22 µM; Vmax (mushroom tyrosinase [5]; inhibitor conc. 20.0 μM): 0.027 mM/min; cellular tyrosinase inhibition compared with kojic acid at 20 μM ([6]; compound at 5 μM): inhibited cellular tyrosinase more than kojic acid
	24.96 ± 4.72%							O=C1/C(=C/c2ccc(O)c(Br)c2)OC(=S)N1c1ccccc1 [Compound 1n, (Z)-5-(3-Bromo-4-hydroxybenzylidene)-3-phenyl-2-thioxooxazolidin-4-one]						
